# Experimental data as given in article PMC7501296, “Rapid and direct control of target protein levels with VHL-recruiting dTAG molecules” (Nature Communications, 2020).
# Several values for one entry are separate records, joined by “and”; a condition that tells them apart may be missing. Equal entries are not always repeated.
# Tests used:
# Format in all cases: cell-based
# [1] = test system: PATU-8902 LACZ-FKBP12^F36V clone; test: Antiproliferation, PATU-8902 LACZ-FKBP12F36V clone, 2D-monolayer (CellTiter-Glo)
# Summary of the method: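 Viability of cells grown as 2D-adherent monolayers was determined with the CellTiter-Glo luminescent reagent (Promega). Luminescence signals were read on either an Envision 2104 plate reader (PerkinElmer) or a Fluostar Omega Reader (BMG Labtech), and the resulting data were processed and analyzed in GraphPad PRISM v8 software.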
# [2] = test system: PATU-8902 LACZ-FKBP12^F36V clone; test: Antiproliferation, PATU-8902 LACZ-FKBP12F36V clone, 3D-spheroid (CellTiter-Glo)
# Summary of the method: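 Viability of cells grown as ultra-low adherent 3D-spheroids was determined with the CellTiter-Glo reagent (Promega). Luminescence was read on either an Envision 2104 plate reader (PerkinElmer) or a Fluostar Omega Reader (BMG Labtech). The resulting data were analyzed with GraphPad PRISM v8.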
# FKBP12^WT-Nluc = target: T1, FKBP12^WT-Nluc (Homo sapiens, UniProt P62942); test: FKBP12WT-Nluc dual luciferase assay (293FT); conditions: 24 h; for DMSO-normalized ratio of Nluc/Fluc signal: 293FT FKBP12WT-Nluc; for Effect on FKBP12WT-Nluc (in words): 293FT
# T1 construct: expressed in transfected cells; host or cells: 293FT
# Summary of the method: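 293FT cells expressing FKBP12^WT-Nluc or FKBP12^F36V-Nluc with Fluc were treated with compound for 24 h at 37 °C. Fluc, then Nluc, luminescence was read with Dual-Glo reagents. Values are DMSO-normalised Nluc/Fluc ratios.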
# [3] = log10[compound] (M) -5.69897, replicate values
# [4] = log10[compound] (M) -6.19897, replicate values
# [5] = log10[compound] (M) -6.69897, replicate values
# [6] = log10[compound] (M) -7.19897, replicate values
# [7] = log10[compound] (M) -7.69897, replicate values
# [8] = log10[compound] (M) -8.19897, replicate values
# [9] = log10[compound] (M) -8.69897, replicate values
# [10] = log10[compound] (M) -9.19897, replicate values
# [11] = log10[compound] (M) -9.69897, replicate values
# [12] = log10[compound] (M) -10.199, replicate values
# [13] = 120 h, log10[compound] (M) -5.69897, single replicates
# [14] = 120 h, log10[compound] (M) -6.19897, single replicates
# [15] = 120 h, log10[compound] (M) -6.69897, single replicates
# [16] = 120 h, log10[compound] (M) -7.19897, single replicates
# [17] = 120 h, log10[compound] (M) -7.69897, single replicates
# [18] = 120 h, log10[compound] (M) -8.19897, single replicates
# [19] = 120 h, log10[compound] (M) -8.69897, single replicates
# [20] = 120 h, log10[compound] (M) -9.19897, single replicates
# [21] = 120 h, log10[compound] (M) -9.69897, single replicates
# [22] = 120 h, log10[compound] (M) -10.199, single replicates
# T1 sequence (P62942 2-108 limits assumed): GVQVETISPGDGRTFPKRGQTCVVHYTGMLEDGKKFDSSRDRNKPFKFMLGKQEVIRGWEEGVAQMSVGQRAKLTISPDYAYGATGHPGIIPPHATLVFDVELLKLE
Compound,"DMSO-normalized antiproliferation [1, 3]","DMSO-normalized antiproliferation [1, 4]","DMSO-normalized antiproliferation [1, 5]","DMSO-normalized antiproliferation [1, 6]","DMSO-normalized antiproliferation [1, 7]","DMSO-normalized antiproliferation [1, 8]","DMSO-normalized antiproliferation [1, 9]","DMSO-normalized antiproliferation [1, 10]","DMSO-normalized antiproliferation [1, 11]","DMSO-normalized antiproliferation [1, 12]","DMSO-normalized antiproliferation [2, 13]","DMSO-normalized antiproliferation [2, 14]","DMSO-normalized antiproliferation [2, 15]","DMSO-normalized antiproliferation [2, 16]","DMSO-normalized antiproliferation [2, 17]","DMSO-normalized antiproliferation [2, 18]","DMSO-normalized antiproliferation [2, 19]","DMSO-normalized antiproliferation [2, 20]","DMSO-normalized antiproliferation [2, 21]","DMSO-normalized antiproliferation [2, 22]",further results
CC[C@H](C(=O)N1CCCC[C@H]1C(=O)O[C@H](CCc1ccc(OC)c(OC)c1)c1ccccc1OCC(=O)NCCCCCCOc1cccc2c1C(=O)N(C1CCC(=O)NC1=O)C2=O)c1cc(OC)c(OC)c(OC)c1 (some centres unmarked) [dTAG-13],79.0923 and 75.109 and 80.3774 and 113.638,118.691 and 93.7383 and 99.9076 and 98.4249,98.3156 and 96.4487 and 164.194 and 141.704,94.7264 and 123.324 and 123.729 and 139.928,115.53 and 113.276 and 121.811 and 92.6376,99.0586 and 98.4337 and 106.76 and 114.872,84.0085 and 109.147 and 95.5423 and 106.301,117.815 and 105.751 and 92.5029 and 116.86,127.696 and 110.786 and 93.8321 and 122.663,105.1 and 122.023 and 107.287 and 98.2283,–,–,–,–,–,–,–,–,–,–,"DMSO-normalized antiproliferation [2, 3]: 83.5347 and 77.755 and 106.784 and 100.802; DMSO-normalized antiproliferation [2, 4]: 108.447 and 95.2018 and 93.9194 and 111.801; DMSO-normalized antiproliferation [2, 5]: 105.932 and 113.702 and 105.116 and 107.515; DMSO-normalized antiproliferation [2, 6]: 104.318 and 154.981 and 104.434 and 95.3632; DMSO-normalized antiproliferation [2, 7]: 98.1432 and 118.54 and 142.668 and 106.77; DMSO-normalized antiproliferation [2, 8]: 105.712 and 98.6185 and 105.909 and 92.2738; DMSO-normalized antiproliferation [2, 9]: 108.958 and 119.361 and 97.2958 and 103.25; DMSO-normalized antiproliferation [2, 10]: 89.1127 and 99.6498 and 108.86 and 111.989; DMSO-normalized antiproliferation [2, 11]: 97.9056 and 108.178 and 110.59 and 112.891; DMSO-normalized antiproliferation [2, 12]: 91.8389 and 92.6594 and 105.927 and 94.166; DMSO-normalized ratio of Nluc/Fluc signal (FKBP12^WT-Nluc; log10[compound] (M) -5.30103, single replicates): 68.0018 and 52.1082 and 49.2679 and 67.0893; DMSO-normalized ratio of Nluc/Fluc signal (FKBP12^WT-Nluc; log10[compound] (M) -5.80103, single replicates): 39.4179 and 40.0508 and 57.6875 and 62.3631; DMSO-normalized ratio of Nluc/Fluc signal (FKBP12^WT-Nluc; log10[compound] (M) -6.30103, single replicates): 61.6189 and 51.8679 and 71.8125 and 45.1167; DMSO-normalized ratio of Nluc/Fluc signal (FKBP12^WT-Nluc; log10[compound] (M) -6.80103, single replicates): 68.675 and 79.0108 and 77.6288 and 57.0488; DMSO-normalized ratio of Nluc/Fluc signal (FKBP12^WT-Nluc; log10[compound] (M) -7.30103, single replicates): 95.7266 and 46.8613 and 87.0104 and 66.427; DMSO-normalized ratio of Nluc/Fluc signal (FKBP12^WT-Nluc; log10[compound] (M) -7.80103, single replicates): 86.0033 and 61.1842 and 69.3744 and 83.8873; DMSO-normalized ratio of Nluc/Fluc signal (FKBP12^WT-Nluc; log10[compound] (M) -8.30103, single replicates): 94.8586 and 72.3429 and 122.034 and 94.0336; DMSO-normalized ratio of Nluc/Fluc signal (FKBP12^WT-Nluc; log10[compound] (M) -8.80103, single replicates): 101.052 and 65.5195 and 71.6364 and 55.6566; DMSO-normalized ratio of Nluc/Fluc signal (FKBP12^WT-Nluc; log10[compound] (M) -9.30103, single replicates): 113.35 and 121.354 and 97.4549 and 93.7336; DMSO-normalized ratio of Nluc/Fluc signal (FKBP12^WT-Nluc; log10[compound] (M) -9.80103, single replicates): 115.063 and 75.6978 and 95.0976 and 66.8915"
CCC(C(=O)N1CCCCC1C(=O)OC(CCc1ccc(OC)c(OC)c1)c1ccccc1OCC(=O)NCCCCCCC(=O)NC(C(=O)N1CC(O)CC1C(=O)NC(C)c1ccc(-c2scnc2C)cc1)C(C)(C)C)c1cc(OC)c(OC)c(OC)c1 (centres unmarked) [dTAG^V-1-NEG],11.5867 and 14.0973 and 18.4019 and 18.5068,63.5123 and 73.6517 and 63.5598 and 74.3207,93.1863 and 113.355 and 96.7633 and 104.117,100.081 and 106.556 and 105.951 and 130.27,138.495 and 100.848 and 147.738 and 83.6486,143.617 and 87.8737 and 136.886 and 159.708,153.483 and 88.4456 and 121.366 and 127.155,128.036 and 98.5375 and 110.326 and 91.7687,126.211 and 97.7702 and 97.5063 and 90.8491,118.887 and 87.4707 and 131.584 and 99.1889,68.4913 and 65.8862 and 68.8321 and 78.0465,88.8571 and 103.865 and 101.246 and 98.2508,91.2022 and 101.677 and 109.864 and 107.932,113.68 and 101.811 and 126.495 and 101.479,124.531 and 121.356 and 110.765 and 105.317,119.921 and 92.6191 and 101.851 and 115.03,108.505 and 98.1611 and 108.837 and 115.846,113.362 and 108.537 and 123.253 and 101.067,112.187 and 102.493 and 128.974 and 86.9201,94.0987 and 98.1746 and 115.316 and 84.3777,Effect on FKBP12WT-Nluc (in words) (FKBP12^WT-Nluc): no activity
CC[C@H](C(=O)N1CCCC[C@H]1C(=O)O[C@H](CCc1ccc(OC)c(OC)c1)c1ccccc1OCC(=O)NCCCCCCC(=O)N[C@H](C(=O)N1C[C@H](O)C[C@H]1C(=O)N[C@@H](C)c1ccc(-c2scnc2C)cc1)C(C)(C)C)c1cc(OC)c(OC)c(OC)c1 [dTAG^V-1],35.4292 and 29.4521 and 35.0517 and 31.6104,87.2455 and 81.8203 and 77.0995 and 64.2664,124.825 and 81.8259 and 133.331 and 119.877,118.009 and 93.8067 and 130.572 and 123.376,133.195 and 132.373 and 134.672 and 120.383,136.88 and 106.56 and 99.7166 and 163.283,148.548 and 115.202 and 143.359 and 119.836,116.491 and 96.4785 and 115.962 and 80.4138,139.57 and 103.845 and 96.4961 and 122.632,133.817 and 113.621 and 96.1958 and 88.4566,79.9207 and 69.7647 and 81.656 and 63.0972,90.8255 and 93.4576 and 97.8876 and 88.6015,116.805 and 103.649 and 110.913 and 111.967,115.092 and 118.114 and 123.495 and 124.235,125.383 and 125.544 and 131.956 and 99.7395,91.6326 and 122.778 and 124.271 and 121.832,107.048 and 111.088 and 112.061 and 114.671,123.177 and 113.909 and 103.784 and 113.953,118.276 and 100.412 and 114.859 and 101.744,96.4797 and 95.686 and 104.084 and 100.448,DMSO-normalized antiproliferation ([1]; log10[compound] (M) -6.69897): 102.668 and 99.5089 and 89.7578 and 106.231; DMSO-normalized antiproliferation ([1]; log10[compound] (M) -7.19897): 90.1193 and 111.795 and 91.2446 and 98.3924; DMSO-normalized antiproliferation ([1]; log10[compound] (M) -7.69897): 112.909 and 117.897 and 108.192 and 99.266; DMSO-normalized antiproliferation ([1]; log10[compound] (M) -8.19897): 101.415 and 100.309 and 97.138 and 102.461; DMSO-normalized antiproliferation ([1]; log10[compound] (M) -8.69897): 103.413 and 90.0724 and 92.9073 and 97.9489; Effect on FKBP12WT-Nluc (in words) (FKBP12^WT-Nluc): no effects
